# Marks after values point to notes of the source that are not given here.
# System: Male Sprague-Dawley rats
# Experiment: Colic distension model (visceral pain model in the rat), abdominal cramps counted
compound,measurement,setting,value
"CCC(=O)C(=O)O.NC(N)=NCCC[C@H](N)C(=O)O [Arginine alpha-ketobutyrate, arginine alpha-ketobutyrate]","Number of abdominal cramps, Average",10 mg/kg p.o. pH 1,15
same,"Number of abdominal cramps, Average",10 mg/kg p.o. pH 6,9*
same,Activity in the colon distension model (in words),p.o. at pH 1,inactive
same,Activity in the colon distension model (in words),p.o. at pH 6 (neutral),active
